Results from patent US20260242391A1 (priority 2023, published 2026).

Tests used:
HL-60 = HL-60 differentiation potency; format: cell-based; conditions: Homo sapiens
in vitro = conditions: human

| EC50 (HL-60) [nM] | IC50 (in vitro) [nM] | SMILES | IC50 (in vitro; HL-60 cells) [nM] |
| --- | --- | --- | --- |
| 40.3 | > 20000 | C[C@H]1[C@@H](Oc2ccc(C3(C(=O)O)COC3)cc2)O[C@@H]2O[C@@]3(C)CC[C@H]4[C@H](C)CC[C@@H]1[C@@]24OO3 [Compound 283, 3-(4-(((3R,5aS,6R,8aS, 9R,10S,12R, 12aR)-3,6,9-trimethyldeca-hydro-12H-3,12-epoxy[1,2]dioxepino[4,3-i]isochromen-10-yl)oxy)phenyl) oxetane-3-carboxylic acid] |  |
| 524 | > 20000 | C[C@H]1[C@@H](OCc2ccc(C(=O)NC(C)(C)C(=O)O)cc2)O[C@@H]2O[C@@]3(C)CC[C@H]4[C@H](C)CC[C@@H]1[C@@]24OO3 [Compound 284, 2-methyl-2-(4-((((3R,5aS,6R,8aS, 9R,10S,12R, 12aR)-3,6,9-trimethyldeca-hydro-12H-3,12-epoxy[1,2]dioxepino[4,3-i]isochromen-10-yl)oxy)methyl)benzamido) propanoic acid] |  |
| 18 | 1530 | C[C@H]1[C@@H](OCc2ccc(C(=O)NCC3(C(=O)O)CCC3)cc2)O[C@@H]2O[C@@]3(C)CC[C@H]4[C@H](C)CC[C@@H]1[C@@]24OO3 [Compound 286, 1-((4-((((3R,5aS,6R,8aS, 9R,10S,12R, 12aR)-3,6,9-trimethyldeca-hydro-12H-3,12-epoxy[1,2]dioxepino[4,3-i]isochromen-10-yl)oxy)methyl)benzamido)methyl) cyclobutane-1-carboxylic acid] |  |
| 60.8 | 1000 | C[C@H]1[C@@H](OC[C@H]2CC[C@@H](C(=O)Nc3ccc(C(=O)O)cc3)CC2)O[C@@H]2O[C@@]3(C)CC[C@H]4[C@H](C)CC[C@@H]1[C@@]24OO3 [Compound 287, 4-((1R,4s)-4-((((3R,5aS,6R,8aS, 9R,10S,12R, 12aR)-3,6,9-trimethyldeca-hydro-12H-3,12-epoxy[1,2]dioxepino[4,3-i]isochromen-10-yl)oxy)methyl)cyclohexane-1-carboxamido) benzoic acid] |  |
| 5580 | > 20000 | C[C@H]1[C@@H](OCc2ccc(C(=O)N[C@@H]3C[C@H](C(=O)O)C[C@H]3O)cc2)O[C@@H]2O[C@@]3(C)CC[C@H]4[C@H](C)CC[C@@H]1[C@@]24OO3 [Compound 288, (1S,3R,4R)-3-hydroxy-4-(4-((((3R,5aS,6R,8aS, 9R,10S,12R, 12aR)-3,6,9-trimethyldeca-hydro-12H-3,12-epoxy[1,2]dioxepino[4,3-i]isochromen-10-yl)oxy)methyl)benzamido) cyclopentane-1-carboxylic acid] |  |
| 27.6 | > 20000 | C[C@H]1[C@@H](Oc2ccc(CC(=O)N[C@@H]3CC[C@H](C(=O)O)C3)cc2)O[C@@H]2O[C@@]3(C)CC[C@H]4[C@H](C)CC[C@@H]1[C@@]24OO3 [Compound 289, (1S,3R)-3-(2-(4-(((3R,5aS,6R,8aS, 9R,10S,12R, 12aR)-3,6,9-trimethyldeca-hydro-12H-3,12-epoxy[1,2]dioxepino[4,3-i]isochromen-10-yl)oxy)phenyl)acetamido) cyclopentane-1-carboxylic acid] |  |
| 83.4 | 11300 | C[C@H]1[C@@H](OCc2ccc(C(=O)N[C@@H]3CCC[C@@H](C(=O)O)C3)cc2)O[C@@H]2O[C@@]3(C)CC[C@H]4[C@H](C)CC[C@@H]1[C@@]24OO3 [Compound 290, (1R,3R)-3-(4-((((3R,5aS,6R,8aS, 9R,10S,12R, 12aR)-3,6,9-trimethyldeca-hydro-12H-3,12-epoxy[1,2]dioxepino[4,3-i]isochromen-10-yl)oxy)methyl)benzamido) cyclohexane-1-carboxylic acid] |  |
| 47.8 | 13400 | C[C@H]1[C@@H](OCc2ccc(C(=O)NC3CC4(C3)CC(C(=O)O)C4)cc2)O[C@@H]2O[C@@]3(C)CC[C@H]4[C@H](C)CC[C@@H]1[C@@]24OO3 (stereo partly drawn) [Compound 291, 6-(4-((((3R,5aS,6R,8aS, 9R,10S,12R, 12aR)-3,6,9-trimethyldeca-hydro-12H-3,12-epoxy[1,2]dioxepino[4,3-i]isochromen-10-yl)oxy)methyl)benzamido)spiro [3.3]heptane-2-carboxylic acid] |  |

Further lines, the molecule ahead of its results:

| SMILES | EC50 (HL-60) [nM] | IC50 (in vitro) [nM] | IC50 (in vitro; HL-60 cells) [nM] |
| --- | --- | --- | --- |
| C[C@H]1[C@@H](OC/C=C/[C@]2(F)CC[C@H](C(=O)O)CC2)O[C@@H]2O[C@@]3(C)CC[C@H]4[C@H](C)CC[C@@H]1[C@@]24OO3 [Compound 271, (1S,4r)-4-fluoro-4-((E)-3-(((3R,5aS,6R,8aS, 9R,10S,12R, 12aR)-3,6,9-trimethyldeca-hydro-12H-3,12-epoxy[1,2]dioxepino[4,3-i]isochromen-10-yl)oxy)prop-1-en-1-yl) cyclohexane-1-carboxylic acid] | 92.4 | 19000 |  |
| C[C@H]1[C@@H](Oc2ccc(C(=O)N(C)[C@H]3CC[C@@H](C(=O)O)C3)cc2)O[C@@H]2O[C@@]3(C)CC[C@H]4[C@H](C)CC[C@@H]1[C@@]24OO3 [Compound 272, (1R,3S)-3-(N-methyl-4-(((3R,5aS,6R,8aS, 9R,10S,12R, 12aR)-3,6,9-trimethyldeca-hydro-12H-3,12-epoxy[1,2]dioxepino[4,3-i]isochromen-10-yl)oxy)benzamido) cyclopentane-1-carboxylic acid] | 105 | 9270 |  |
| C[C@H]1[C@@H](OCc2ccc(C(=O)NC34CC(C(=O)O)(C3)C4)cc2)O[C@@H]2O[C@@]3(C)CC[C@H]4[C@H](C)CC[C@@H]1[C@@]24OO3 [Compound 273, 3-(4-((((3R,5aS,6R,8aS, 9R,10S,12R, 12aR)-3,6,9-trimethyldeca-hydro-12H-3,12-epoxy[1,2]dioxepino[4,3-i]isochromen-10-yl)oxy)methyl)benzamido) bicyclo[1.1.1] pentane-1-carboxylic acid] | 2890 | 19400 |  |
| C[C@H]1[C@@H](OCc2ccc(C(=O)N[C@H]3CC[C@@H](C(=O)O)C3)cc2)O[C@@H]2O[C@@]3(C)CC[C@H]4[C@H](C)CC[C@@H]1[C@@]24OO3 [Compound 275, (1R,3S)-3-(4-((((3R,5aS,6R,8aS, 9R,10S,12R, 12aR)-3,6,9-trimethyldeca-hydro-12H-3,12-epoxy[1,2]dioxepino[4,3-i]isochromen-10-yl)oxy)methyl)benzamido) cyclopentane-1-carboxylic acid] | 240 | 6800 |  |
| C[C@H]1[C@@H](OCc2ccc(C(=O)N3C[C@@H](F)C[C@H]3C(=O)O)cc2)O[C@@H]2O[C@@]3(C)CC[C@H]4[C@H](C)CC[C@@H]1[C@@]24OO3 [Compound 276, (2S,4S)-4-fluoro-1-(4-((((3R,5aS,6R,8aS, 9R,10S,12R, 12aR)-3,6,9-trimethyldeca-hydro-12H-3,12-epoxy[1,2]dioxepino[4,3-i]isochromen-10-yl)oxy)methyl)benzoyl) pyrrolidine-2-carboxylic acid] | > 20000 | > 20000 |  |
| C[C@H]1[C@@H](OCc2ccc(C(=O)N3CCC(C(=O)O)CC3)cc2)O[C@@H]2O[C@@]3(C)CC[C@H]4[C@H](C)CC[C@@H]1[C@@]24OO3 [Compound 277, 1-(4-((((3R,5aS,6R,8aS, 9R,10S,12R, 12aR)-3,6,9-trimethyldeca-hydro-12H-3,12-epoxy[1,2]dioxepino[4,3-i]isochromen-10-yl)oxy)methyl)benzoyl) piperidine-4-carboxylic acid] | 1780 | > 20000 |  |
| C[C@H]1[C@@H](OCc2ccc(C(=O)N[C@H]3C[C@@H](C(=O)O)C3)cc2)O[C@@H]2O[C@@]3(C)CC[C@H]4[C@H](C)CC[C@@H]1[C@@]24OO3 [Compound 278, (1R,3s)-3-(4-((((3R,5aS,6R,8aS, 9R,10S,12R, 12aR)-3,6,9-trimethyldeca-hydro-12H-3,12-epoxy[1,2]dioxepino[4,3-i]isochromen-10-yl)oxy)methyl)benzamido) cyclobutane-1-carboxylic acid] | 354 | > 20000 |  |
| C[C@H]1[C@@H](Oc2ccc([C@@H](C)C(=O)O)cc2F)O[C@@H]2O[C@@]3(C)CC[C@H]4[C@H](C)CC[C@@H]1[C@@]24OO3 [Compound 279, (R)-2-(3-fluoro-4-(((3R,5aS,6R,8aS, 9R,10S,12R, 12aR)-3,6,9-trimethyldeca-hydro-12H-3,12-epoxy[1,2]dioxepino[4,3-i]isochromen-10-yl)oxy)phenyl) propanoic acid] | 26.8 | 4860 |  |
| Cc1cc(C(=O)O)cc(Cl)c1CO[C@H]1O[C@@H]2O[C@@]3(C)CC[C@H]4[C@H](C)CC[C@@H]([C@H]1C)[C@@]24OO3 [Compound 280, 3-chloro-5-methyl-4-((((3R,5aS,6R,8aS, 9R,10S,12R, 12aR)-3,6,9-trimethyldeca-hydro-12H-3,12-epoxy[1,2]dioxepino[4,3-i]isochromen-10-yl)oxy)methyl) benzoic acid] | 246 | 3220 |  |
| C[C@H]1[C@@H](OCc2ccc(C(=O)N[C@H](C(=O)O)C(C)(C)C)cc2)O[C@@H]2O[C@@]3(C)CC[C@H]4[C@H](C)CC[C@@H]1[C@@]24OO3 [Compound 281, (S)-3,3-dimethyl-2-(4-((((3R,5aS,6R,8aS, 9R,10S,12R, 12aR)-3,6,9-trimethyldeca-hydro-12H-3,12-epoxy[1,2]dioxepino[4,3-i]isochromen-10-yl)oxy)methyl)benzamido) butanoic acid] | 112 | 430 |  |
| C[C@H]1[C@@H](Oc2ccc([C@H](C)C(=O)O)cc2F)O[C@@H]2O[C@@]3(C)CC[C@H]4[C@H](C)CC[C@@H]1[C@@]24OO3 [Compound 282, (S)-2-(3-fluoro-4-(((3R,5aS,6R,8aS, 9R,10S,12R, 12aR)-3,6,9-trimethyldeca-hydro-12H-3,12-epoxy[1,2]dioxepino[4,3-i]isochromen-10-yl)oxy)phenyl) propanoic acid] | 12.7 | 4820 |  |
| C[C@H]1[C@@H](Oc2ccc(CC(=O)N[C@H]3C[C@@H](C(=O)O)C3)cc2)O[C@@H]2O[C@@]3(C)CC[C@H]4[C@H](C)CC[C@@H]1[C@@]24OO3 [Compound 292, (1R,3s)-3-(2-(4-(((3R,5aS,6R,8aS, 9R,10S,12R, 12aR)-3,6,9-trimethyldeca-hydro-12H-3,12-epoxy[1,2]dioxepino[4,3-i]isochromen-10-yl)oxy)phenyl)acetamido) cyclobutane-1-carboxylic acid] | 42.9 |  | > 20000 |
